In article PMC6007898, “Methyl dihydrojasmonate and lilial are the constituents with an "off-label" insect repellence in perfumes” (PLoS ONE, 2018):

Molecular target: T1, CquiOR136/CquiOrco (Culex quinquefasciatus, UniProt A0A0A0QKD4)
T1 construct: odorant receptor co-expressed with its co-receptor Orco in Xenopus oocytes; with Odorant receptor coreceptor
T1 sequence (A0A0A0QKD4 1-436): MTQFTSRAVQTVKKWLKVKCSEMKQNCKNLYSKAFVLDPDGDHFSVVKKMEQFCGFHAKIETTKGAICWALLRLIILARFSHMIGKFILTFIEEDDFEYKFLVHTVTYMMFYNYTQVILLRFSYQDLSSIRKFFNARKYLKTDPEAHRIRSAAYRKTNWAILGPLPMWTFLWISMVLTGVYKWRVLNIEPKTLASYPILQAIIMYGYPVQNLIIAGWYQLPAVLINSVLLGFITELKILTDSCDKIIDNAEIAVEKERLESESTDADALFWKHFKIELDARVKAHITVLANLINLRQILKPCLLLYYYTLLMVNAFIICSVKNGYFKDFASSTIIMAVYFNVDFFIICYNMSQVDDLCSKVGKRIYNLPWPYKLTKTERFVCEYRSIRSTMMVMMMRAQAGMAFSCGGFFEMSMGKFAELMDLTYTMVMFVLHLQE
Experiment: two-electrode voltage clamp, Xenopus oocytes
Type: cell-based
Conditions: holding potential -80 mV, CquiOrco co-expressed, agonist
Procedure: All compounds were tested at the same dose

SMILES	current at 1 mM
CC(C=O)Cc1ccc(C(C)(C)C)cc1 (centres unmarked) [lilial]	both compounds were somewhat strong repellents, they activated CquiOR136 differently
CCCCCC1C(=O)CCC1CC(=O)OC (mixture of isomers) [MDJ, methyl 2-(3-oxo-2-pentylcyclopentyl)acetate]	The currents elicited by methyl dihydrojasmonate were significantly higher than those elicited by lilial
